Results published in US20240399142A1, “Methods Of Using Alternating Electric Fields And Checkpoint Inhibitors” (NOVOCURE GMBH, priority 2023, published 2024).

Assay: LUNAR study safety: adverse events per CTCAE version 4.03, safety population
Assay type: in vivo, human
[1] = Grade 3, nervous system disorders
[2] = Grade 3, renal and urinary disorders
[3] = Grade 3, respiratory, thoracic, and mediastinal disorders
[4] = Grade 3, skin and subcutaneous tissue disorders

Method: Safety and treatment data were compiled from all patients who received any study therapy and were analyzed according to the actual treatment received. Analyses were performed using SAS software, version 9.4 (SAS Institute).

## CC(=O)O[C@@]12CO[C@@H]1C[C@H](O)[C@@]1(C)C(=O)[C@H](O)C3=C(C)[C@@H](OC(=O)[C@H](O)[C@@H](NC(=O)OC(C)(C)C)c4ccccc4)C[C@@](O)([C@@H](OC(=O)c4ccccc4)[C@H]21)C3(C)C [Docetaxel, docetaxel]
All grades
  Alopecia: 22 (32.4) no. (%)
  Anemia: 19 (27.9) no. (%)
  Any adverse event: 61 (89.7) no. (%)
  Arthralgia: 7 (10.3) no. (%)
  Asthenia: 10 (14.7) no. (%)
  Back pain: 4 (5.9) no. (%)
  Constipation: 10 (14.7) no. (%)
  Cough: 11 (16.2) no. (%)
  Decreased appetite: 11 (16.2) no. (%)
  Dermatitis: 0 no. (%)
  Diarrhea: 12 (17.6) no. (%)
  Dysphagia: 1 (1.5) no. (%)
  Dyspnea: 19 (27.9) no. (%)
  Fatigue: 18 (26.5) no. (%)
  Headache: 6 (8.8) no. (%)
  Hypoalbuminemia: 8 (11.8) no. (%)
  Hypokalemia: 8 (11.8) no. (%)
  Hyponatremia: 4 (5.9) no. (%)
  Nausea: 10 (14.7) no. (%)
  Neutropenia: 15 (22.1) no. (%)
  Neutrophil count decreased: 6 (8.8) no. (%)
  Oedema peripheral: 9 (13.2) no. (%)
  Pleural effusion: 8 (11.8) no. (%)
  Pneumonia: 11 (16.2) no. (%)
  Pruritus: 0 no. (%)
  Pyrexia: 9 (13.2) no. (%)
  Rash: 2 (2.9) no. (%)
  Rash maculopapular: 3 (4.4) no. (%)
  Skin irritation: 0 no. (%)
  Upper respiratory tract infection: 1 (1.5) no. (%)
  Vomiting: 7 (10.3) no. (%)
  White blood cell count decreased: 7 (10.3) no. (%)
Grade 3
  Acute myocardial infarction: 0 no. (%)
  Adenocarcinoma of colon: 0 no. (%)
  Alanine aminotransferase increased: 1 (1.5) no. (%)
  Anemia: 8 (11.8) no. (%)
  Anemia macrocytic: 1 (1.5) no. (%)
  Any adverse event: 23 (33.8) no. (%)
  Arthralgia: 0 no. (%)
  Ascites: 0 no. (%)
  Aspergillus infection: 0 no. (%)
  Asthenia: 4 (5.9) no. (%)
  Atrial tachycardia: 1 (1.5) no. (%)
  Autoimmune colitis: 0 no. (%)
  Back pain: 0 no. (%)
  Blood bilirubin increased: 0 no. (%)
  Bone pain: 1 (1.5) no. (%)
  Bronchiolitis: 0 no. (%)
  Bronchitis: 0 no. (%)
  C-reactive protein increased: 0 no. (%)
  Cancer pain: 1 (1.5) no. (%)
  Cardiac failure congestive: 0 no. (%)
  Cardiac tamponade: 0 no. (%)
  Cardiac ventricular thrombosis: 0 no. (%)
  Cataract: 0 no. (%)
  Chest pain: 0 no. (%)
  Cholangitis: 1 (1.5) no. (%)
  Cholecystitis: 0 no. (%)
  Cholelithiasis: 0 no. (%)
  Clostridium bacteremia: 0 no. (%)
  Coronary artery disease: 0 no. (%)
  Decreased appetite: 0 no. (%)
  Dehydration: 1 (1.5) no. (%)
  Diarrhea: 0 no. (%)
  Diverticulitis: 0 no. (%)
  Drug hypersensitivity: 1 (1.5) no. (%)
  Encephalitis: 0 no. (%)
  Esophagitis: 0 no. (%)
  Euthanasia: 0 no. (%)
  Fatigue: 4 (5.9) no. (%)
  Febrile neutropenia: 3 (4.4) no. (%)
  Femoral neck fracture: 0 no. (%)
  Forced expiratory volume decreased: 1 (1.5) no. (%)
  Gastroenteritis norovirus: 1 (1.5) no. (%)
  Gastroenteritis salmonella: 0 no. (%)
  General physical health deterioration: 0 no. (%)
  Hematochezia: 0 no. (%)
  Hepatic enzyme increased: 0 no. (%)
  Hip fracture: 0 no. (%)
  Hypercalcemia: 0 no. (%)
  Hyperglycemia: 1 (1.5) no. (%)
  Hyperkalaemia: 0 no. (%)
  Hypertriglyceridaemia: 0 no. (%)
  Hypoalbuminemia: 1 (1.5) no. (%)
  Hypocalcaemia: 0 no. (%)
  Hypokalemia: 0 no. (%)
  Hyponatremia: 2 (2.9) no. (%)
  Ileus: 1 (1.5) no. (%)
  Infection: 0 no. (%)
  Intestinal dilatation: 1 (1.5) no. (%)
  Intestinal hemorrhage: 1 (1.5) no. (%)
  Intestinal perforation: 0 no. (%)
  Large intestine perforation: 0 no. (%)
  Leukopenia: 3 (4.4) no. (%)
  Liver disorder: 1 (1.5) no. (%)
  Localized oedema: 0 no. (%)
  Lung abscess: 0 no. (%)
  Lymphocyte count decreased: 0 no. (%)
  Lymphopenia: 0 no. (%)
  Malignant ascites: 1 (1.5) no. (%)
  Malignant pleural effusion: 1 (1.5) no. (%)
  Malnutrition: 0 no. (%)
  Metastases to bone: 0 no. (%)
  Metastases to central nervous system: 2 (2.9) no. (%)
  Metastases to meninges: 0 no. (%)
  Metastases to skin: 0 no. (%)
  Mouth ulceration: 0 no. (%)
  Mucosal inflammation: 1 (1.5) no. (%)
  Multiple organ dysfunction syndrome: 0 no. (%)
  Muscular weakness: 1 (1.5) no. (%)
  Myalgia: 0 no. (%)
  Myocardial infarction: 1 (1.5) no. (%)
  Nausea: 0 no. (%)
  Neck pain: 1 (1.5) no. (%)
  Neuropathy peripheral: 0 no. (%)
  Neutropenia: 1 (1.5) no. (%)
  Neutrophil count decreased: 2 (2.9) no. (%)
  Non-cardiac chest pain: 1 (1.5) no. (%)
  Oedema peripheral: 2 (2.9) no. (%)
  Oral candidiasis: 0 no. (%)
  Pancreatic failure: 1 (1.5) no. (%)
  Pancreatitis: 0 no. (%)
  Pericardial effusion: 0 no. (%)
  Peripheral sensory: 1 (1.5) no. (%)
  Platelet count decreased: 0 no. (%)
  Pneumonia: 7 (10.3) no. (%)
  Pneumonia pseudomonal: 0 no. (%)
  Pneumonia staphylococcal: 0 no. (%)
  Pyelonephritis: 0 no. (%)
  Pyopneumothorax: 1 (1.5) no. (%)
  Pyrexia: 0 no. (%)
  Refeeding syndrome: 1 (1.5) no. (%)
  Respiratory tract infection: 0 no. (%)
  Right ventricular failure: 1 (1.5) no. (%)
  Sepsis: 1 (1.5) no. (%)
  Septic shock: 0 no. (%)
  Skin infection: 0 no. (%)
  Stomatitis: 0 no. (%)
  Subileus: 0 no. (%)
  Thrombocytopenia: 0 no. (%)
  Thyroiditis subacute: 0 no. (%)
  Tumor pain: 0 no. (%)
  Upper respiratory tract infection: 0 no. (%)
  Urinary tract infection: 0 no. (%)
  Urosepsis: 0 no. (%)
  Vomiting: 0 no. (%)
  Weight decreased: 0 no. (%)
  White blood cell count decreased: 5 (7.4) no. (%)
[1]
  Brain oedema: 0 no. (%)
  Cauda equina syndrome: 0 no. (%)
  Dysarthria: 0 no. (%)
  Embolic stroke: 0 no. (%)
  Hemiparesis: 1 (1.5) no. (%)
  Motor dysfunction: 0 no. (%)
  Nervous system disorder: 0 no. (%)
  Neurologic neglect syndrome: 1 (1.5) no. (%)
  Neurotoxicity: 0 no. (%)
  Peripheral sensorimotor neuropathy: 2 (2.9) no. (%)
  Quadriparesis: 0 no. (%)
  Seizure: 0 no. (%)
  Syncope: 2 (2.9) no. (%)
  Vocal cord paralysis: 0 no. (%)
Grade 3, psychiatric disorders
  Anxiety: 0 no. (%)
  Confusional state: 0 no. (%)
  Mental status changes: 0 no. (%)
[2]
  Acute kidney injury: 0 no. (%)
  Urinary retention: 0 no. (%)
[3]
  Acute respiratory failure: 0 no. (%)
  Atelectasis: 2 (2.9) no. (%)
  Bronchial obstruction: 0 no. (%)
  Bronchopleural fistula: 0 no. (%)
  Chronic obstructive pulmonary disease: 1 (1.5) no. (%)
  Cough: 0 no. (%)
  Dyspnoea: 2 (2.9) no. (%)
  Esophago-bronchial fistula: 0 no. (%)
  Hemoptysis: 1 (1.5) no. (%)
  Hypoxia: 2 (2.9) no. (%)
  Interstitial lung disease: 0 no. (%)
  Pleural effusion: 4 (5.9) no. (%)
  Pneumonia aspiration: 0 no. (%)
  Pneumonitis: 1 (1.5) no. (%)
  Pulmonary embolism: 1 (1.5) no. (%)
  Pulmonary hemorrhage: 0 no. (%)
  Respiratory failure: 0 no. (%)
[4]
  Alopecia: 1 (1.5) no. (%)
  Dermatitis exfoliative: 0 no. (%)
  Pruritus: 0 no. (%)
  Rash: 0 no. (%)
  Rash erythematous: 0 no. (%)
  Rash maculopapular: 0 no. (%)
  Skin erosion: 0 no. (%)
  Skin reaction: 0 no. (%)
  Skin toxicity: 0 no. (%)
Grade 3, vascular disorders
  Deep vein thrombosis: 0 no. (%)
  Embolism: 0 no. (%)
  Hypertension: 0 no. (%)
  Jugular vein thrombosis: 0 no. (%)
  Peripheral arterial occlusive disease: 0 no. (%)
  Vena cava embolism: 0 no. (%)
Grade 4
  Acute myocardial infarction: 0 no. (%)
  Adenocarcinoma of colon: 0 no. (%)
  Alanine aminotransferase increased: 0 no. (%)
  Anemia: 0 no. (%)
  Anemia macrocytic: 0 no. (%)
  Any adverse event: 16 (23.5) no. (%)
  Arthralgia: 0 no. (%)
  Ascites: 0 no. (%)
  Aspergillus infection: 0 no. (%)
  Asthenia: 0 no. (%)
  Atrial tachycardia: 0 no. (%)
  Autoimmune colitis: 0 no. (%)
  Back pain: 0 no. (%)
  Blood bilirubin increased: 0 no. (%)
  Bone pain: 0 no. (%)
  Bronchiolitis: 0 no. (%)
  Bronchitis: 0 no. (%)
  C-reactive protein increased: 0 no. (%)
  Cancer pain: 0 no. (%)
  Cardiac failure congestive: 0 no. (%)
  Cardiac tamponade: 0 no. (%)
  Cardiac ventricular thrombosis: 0 no. (%)
  Cataract: 0 no. (%)
  Chest pain: 0 no. (%)
  Cholangitis: 0 no. (%)
  Cholecystitis: 0 no. (%)
  Cholelithiasis: 0 no. (%)
  Clostridium bacteremia: 0 no. (%)
  Coronary artery disease: 0 no. (%)
  Decreased appetite: 0 no. (%)
  Dehydration: 0 no. (%)
  Diarrhea: 0 no. (%)
  Diverticulitis: 0 no. (%)
  Drug hypersensitivity: 0 no. (%)
  Encephalitis: 0 no. (%)
  Esophagitis: 0 no. (%)
  Euthanasia: 0 no. (%)
  Fatigue: 0 no. (%)
  Febrile neutropenia: 0 no. (%)
  Femoral neck fracture: 0 no. (%)
  Forced expiratory volume decreased: 0 no. (%)
  Gastroenteritis norovirus: 0 no. (%)
  Gastroenteritis salmonella: 0 no. (%)
  General physical health deterioration: 0 no. (%)
  Hematochezia: 0 no. (%)
  Hepatic enzyme increased: 0 no. (%)
  Hip fracture: 0 no. (%)
  Hypercalcemia: 0 no. (%)
  Hyperglycemia: 0 no. (%)
  Hyperkalaemia: 0 no. (%)
  Hypertriglyceridaemia: 0 no. (%)
  Hypoalbuminemia: 0 no. (%)
  Hypocalcaemia: 0 no. (%)
  Hypokalemia: 0 no. (%)
  Hyponatremia: 0 no. (%)
  Ileus: 0 no. (%)
  Infection: 0 no. (%)
  Intestinal dilatation: 0 no. (%)
  Intestinal hemorrhage: 0 no. (%)
  Intestinal perforation: 0 no. (%)
  Large intestine perforation: 0 no. (%)
  Leukopenia: 0 no. (%)
  Liver disorder: 0 no. (%)
  Localized oedema: 0 no. (%)
  Lung abscess: 0 no. (%)
  Lymphocyte count decreased: 0 no. (%)
  Lymphopenia: 0 no. (%)
  Malignant ascites: 0 no. (%)
  Malignant pleural effusion: 0 no. (%)
  Malnutrition: 0 no. (%)
